From patent US20150037397A1, “PHARMACEUTICAL COMPOSITIONS OF PYRIDINIUM AND QUINOLINIUM DERIVATIVES” (TRASLATIONAL CANCER DRUGS PHARMA, S.L., priority 2010, published 2015)

How the values were obtained:
[1] = Chemical stability of TCD717 in solution under stress conditions; assay type: physicochemical
Excerpt: The chemical stability of TCD717 (compound No. 6, Q=Br) in solution (which comprises MeOH/water 3:1 v/v and additional stress elements, as indicated in the Table) under various stress conditions is provided in the following Table.

[2] = assay type: physicochemical
Protocol: The solubility of solid TCD717 at room temperature in prototype vehicles suitable for intravenous formulation and the behavior after five-fold dilution with 0.9% NaCl solutions was tested. Formulations were prepared by dissolving the components in water at the indicated concentration.

[3] = Solubility in saline solutions at different NaCl concentrations; assay type: physicochemical; conditions: NaCl 2, 5, 10, 20, 100 and 165 mM (FIG. 2)
Protocol: To obtain a greater insight on the sensitivity of the solubility for sodium and chloride ions, the solubility of TCD717 was tested in saline solutions at NaCl concentrations of 2, 5, 10, 20, 100 and 165 mM NaCl.

[4] = Solubility testing in lipophilic and amphiphilic vehicles; assay type: physicochemical
Protocol: The solubility of TCD717 was determined in selected vehicles. […] The undissolved fraction of TCD717 was separated by filtration through a 0.22 μm pore size PVDF filter, and the filtrate was diluted before analyzing the TCD717 content by HPLC.

[5] = pH solubility profiling in Titrisol buffers (HPLC after filtration); assay type: physicochemical; conditions: 24 h, room temperature
Protocol: The pH solubility profile of compound TCD717 (compound No. 6, Q=Br) was assessed at pH 2-8. […] The TCD717 concentration after filtration through a 0.22 μm pore size PVDF filter was determined using HPLC.

[6] = Solubility in simulated biological media and dilution media; assay type: physicochemical; conditions: for Solubility of TCD717: 24 h stirring, room temperature

In the case of `CN(c1ccc(Cl)cc1)c1cc[n+](Cc2ccc(-c3ccc(C[n+]4ccc(N(C)c5ccc(Cl)cc5)c5ccccc54)cc3)cc2)c2ccccc12.[Br-].[Br-]` [TCD717], the “Observation (chemical stability)” value ([1]; MeOH/water 3:1 v/v, 0.1M HCl/1 day) is reported as “No degradation observed”, the “Observation (chemical stability), degradation” value ([1]; MeOH/water 3:1 v/v, 0.1M NaOH/1 day) is reported as “Some degradation (~6%)” and the “Observation (chemical stability)” value ([1]; MeOH/water 3:1 v/v, 3% H2O2 + 0.1M HCl) is reported as “Complete degradation”. The “Observation (chemical stability)” value ([1]; MeOH/water 3:1 v/v, 3% H2O2 + 0.1M NaOH) was “Complete degradation”, the “Observation (chemical stability)” value ([1]; MeOH/water 3:1 v/v, 3% H2O2/1 day) was “No degradation observed” and the Stability ([1]; combinations of acidic/oxidizing and basic/oxidizing conditions) was “very unstable”. The Stability ([1]; under basic conditions) was “only moderately stable”, the “Solubilization potential of the solubilizing agent for TCD717” value [2] was “highest solubilization potential” and the Precipitation after dilution ([2]; HP-β-CD composition, five-fold dilution with 0.9% NaCl solutions) was “no precipitation”. The “Aqueous solubility as a function of NaCl concentration” value [3] was “decreases at NaCl concentrations above 20 mM”, the Solubility ([4]; Cremophor EL35, at least 24 h at 45° C.) was 0.78 mg/g and the Solubility ([4]; Miglyol 812, at least 24 h at 45° C.) was 0.002 mg/g. For the same compound, the Solubility ([4]; Solutol HS15, at least 24 h at 45° C.) was 2.3 mg/g, the Affinity for detergents ([4]; Solutol HS 15 and Tween 80) was “low affinity” and the Solubility ([4]; Soya oil, at least 24 h at 45° C.) was 0.015 mg/g. For the same compound, the Solubility ([4]; Tween 80, at least 24 h at 45° C.) was 3.1 mg/g, the Solubility ([4]; soy oil and Miglyol) was “very low” and the “TCD717 concentration (solubility)” value ([5]; Boron acid/HCl/NaOH 110 mM (Tritrisol), buffer pH 8) was 0.003 mg/mL. The “TCD717 concentration (solubility)” value ([5]; Citrate/HCl 30 mM (Tritrisol), buffer pH 2) was 0.045 mg/mL, the “TCD717 concentration (solubility)” value ([5]; Citrate/HCl 40 mM (Tritrisol), buffer pH 3) was 0.032 mg/mL and the “TCD717 concentration (solubility)” value ([5]; Citrate/HCl 56 mM (Tritrisol), buffer pH 4) was 0.008 mg/mL. For the same compound, the “TCD717 concentration (solubility)” value ([5]; Citrate/NaOH 60 mM (Tritrisol), buffer pH 6) was 0.062 mg/mL, the “TCD717 concentration (solubility)” value ([5]; Citrate/NaOH 96 mM (Tritrisol), buffer pH 5) was 0.006 mg/mL and the “TCD717 concentration (solubility)” value ([5]; Phosphate (K + Na+) 67 mM (Tritrisol), buffer pH 7) was 0.86 mg/mL. The “TCD717 concentration (solubility)” value ([5]; Water, suspended at 5 mg/ml) was 0.200 mg/mL, the “Solubility of TCD717” value ([6]; Glucose 5% (w/v)) was 0.260 mg/mL and the “Solubility of TCD717” value ([6]; Human Serum Albumin 2% (w/v)) was 0.275 mg/mL. The “Solubility of TCD717” value ([6]; Saline 0.9% (w/v)) was 0.009 mg/mL, the “Solubility of TCD717” value ([6]; Water) was 0.200 mg/mL and the “Solubility in aqueous NaCl 0.9%” value ([6]; aqueous NaCl 0.9%) was 9 µg/mL. It also gave a Solubility in water ([6]; water at 25° C.) of 0.2 mg/mL.
